Assay results as given in the Deep4Chem optical property database.
One block for each molecule: values may come before it.

Experiment: photoluminescence quantum yield (fraction); solvent given as SMILES

photoluminescence quantum yield (in c1cc(-c2cccc(-n3c4ccccc4c4ccccc43)c2)cc(-n2c3ccccc3c3ccccc32)c1): 0.94
Compound: c1ccc(-c2nc(-c3ccccc3)nc(-c3ccc(-c4ccc5c(c4)C4(c6ccccc6-c6ccccc64)c4cc(-c6ccc(-c7nc(-c8ccccc8)nc(-c8ccccc8)n7)cc6)ccc4N5c4ccccc4)cc3)n2)cc1

photoluminescence quantum yield (in CCCCCCC): 0.16
Compound: c1ccc2c3c(ccc2c1)-c1cccc2c1c-3cc1ccccc12

photoluminescence quantum yield (in ClC(Cl)Cl): 0.28
Compound: COc1ccc2c(c1)CCC1=C(c3ccccc3)C3=Nc4c(-c5ccccc5)c5c(n4[B-](F)(F)[N+]3=C12)-c1ccc(OC)cc1CC5

photoluminescence quantum yield (in ClCCl): 0.123
Compound: Cc1ccc(-c2c3nc(c(-c4ccc(C)cc4)c4ccc([nH]4)c(-c4ccc(OC(=O)C(C)c5ccccc5)cc4)c4nc(c(-c5ccc(C)cc5)c5ccc2[nH]5)C=C4)C=C3)cc1 (stereo not given)

photoluminescence quantum yield (in CN(C)C=O): 0.155
Compound: CCN(CC)c1ccc(-c2nc(Oc3ccc(-c4nc5ccccc5s4)cc3)nc(Oc3ccc(-c4nc5ccccc5s4)cc3)n2)cc1

photoluminescence quantum yield (in C1CCOC1): 0.587
Compound: CC(C)(C)c1ccc(-c2c(-c3ccc(N(c4ccccc4)c4ccccc4)cc3)cc(-c3ccc(N(c4ccccc4)c4ccccc4)cc3)c(-c3ccc(C(C)(C)C)cc3)c2-c2ccc(C(C)(C)C)cc2)cc1

photoluminescence quantum yield (in CS(C)=O): 0.58
Compound: Cc1ccc(-c2cc(/C=C/c3ccc(N(c4ccccc4)c4ccccc4)cc3)c(C#N)c(N3CCCCC3)c2)cc1

Continued, molecule first:

Compound: COc1ccc(-n2nc(C#N)c(N3CCC(N4CCCCC4)CC3)n2)cc1
photoluminescence quantum yield (in CC#N): 0.156

Compound: CCCCCCCCCCOc1ccc(C#Cc2cc3c(C#Cc4ccc(OCCCCCCCCCC)cc4)c(C#Cc4ccc(OCCCCCCCCCC)cc4)c4cc(C#Cc5ccc(OCCCCCCCCCC)cc5)cc5c(C#Cc6ccc(OCCCCCCCCCC)cc6)c(C#Cc6ccc(OCCCCCCCCCC)cc6)c(c2)c3c45)cc1
photoluminescence quantum yield (in ClCCl): 0.44

Compound: CCOC(=O)c1cc(C(=O)OCC)c2cc(N)ccc2n1
photoluminescence quantum yield (in CCO): 0.4

Compound: CCC1=C(C)C2=C(c3c4ccccc4c(-c4ccccc4)c4ccccc34)c3c(C)c(CC)c(C)n3[B-](F)(F)[N+]2=C1C
photoluminescence quantum yield (in CC#N): 0.422
photoluminescence quantum yield (in CCCCCC): 0.903
photoluminescence quantum yield (in CCO): 0.804
photoluminescence quantum yield (in CN(C)C=O): 0.648
photoluminescence quantum yield (in Cc1ccccc1): 0.858
photoluminescence quantum yield (in ClCCl): 0.833

Compound: CCOC(=O)c1sc(-c2ccc(-c3cc(-c4cccs4)c(C(=O)OCC)s3)s2)cc1-c1cccs1
photoluminescence quantum yield (in ClCCl): 0.18

Compound: Cc1nc2cccc(-c3nc4ccccc4[nH]3)c2c(=O)[nH]1
photoluminescence quantum yield (in CN(C)C=O): 0.088

Compound: Cc1ccc2c(c1)C1(c3ccccc3-c3ccccc31)c1cc(C)ccc1N2c1ccc(-c2ncccn2)cc1
photoluminescence quantum yield (in O=P(c1ccccc1)(c1ccccc1)c1ccc2oc3ccc(P(=O)(c4ccccc4)c4ccccc4)cc3c2c1): 0.91

Compound: Cc1cccc(C2=CC3=C(c4c(C)cc(C)cc4C)c4cc(-c5cccc(C)c5)c(-c5cccc(C)c5)n4[B-](F)(F)[N+]3=C2c2cccc(C)c2)c1
photoluminescence quantum yield (in C1CCCCC1): 0.41
photoluminescence quantum yield (in C1CCOC1): 0.33
photoluminescence quantum yield (in CC#N): 0.24
photoluminescence quantum yield (in Cc1ccccc1): 0.44
photoluminescence quantum yield (in ClCCl): 0.3

Compound: CC1=CC(C)=[N+]2C1=Cc1c3ccccc3c(-c3[nH]c(C)cc3C)n1[B-]2(F)F
photoluminescence quantum yield (in ClCCl): 0.61
